Source: US8591908B2, “Immunogen for preparation of therapeutic vaccines or drugs for treatment of hepatitis B and the producing method and use thereof” (Institute of Immunology, PLA, priority 2002, dated 2013)
“And” between values parts separate entries of the source, which are not always exact repeats. Equal entries are not always repeated. Ends that are not written are not given here. * marks the point of attachment. Palmitoyl = CCCCCCCCCCCCCCCC(=O)*

Tests used:
HBV-DNA transgenic mice [1] = experiment: HBV transgenic mice: cytokines of spleen lymphocytes, ELISA (Th1/Th2); assay type: in vivo; details: 10, 100, 1000 U/mouse s.c., day 30; spleen lymphocytes restimulated with 10 ng/ml for 3 days
Procedure: (§1) The levels of cytokines such as IFN-γ, IL-4, etc. in supernatant were measured by the ELISA method, and the activity of the test drug (CH3(CH2)14COKSSQYIKANSKFIGITEAAASIVSPFIPLLGGGDPRVRGLYFPA) (SEQ ID NO:5) for inducing the differentiation of T cells into Th1/Th2 type was analyzed. […] The expression frequency of IFN-γ secreting cells in peripheral blood lymphocytes was measured by the ELI-SPOT method in said supernatant. […] On the 10th, 20th and 30th day after the end of the three immunizations, bloods were removed, serum isolated, and the contents of HBsAg and HBV-DNA in the serum were separately measured by the ELISA method and quantitative PCR method.
Then supernatants were collected and the secretion levels of cytokines such as TNF-α, IFN-γ, IL-4, etc. in supernatants were measured by ELISA, and the activity of the test drug for inducing the conversion of Th1/Th2 type from T cells in subjects was analyzed.

[2] = Solubility in different solution systems; assay type: physicochemical
Excerpt: (§2) εPA44 was soluble and stable in DMSO, but poorly soluble and stable in other solutions (see Table 5). Thus, DMSO was used as the mobile phase for SEC.

[3] = tested on: hepatitis B surface antigen (HBsAg) in HBV transgenic mice; experiment: HBV transgenic mice: HBsAg in serum, ELISA; assay type: in vivo; details: 10th, 20th, 30th day after three immunizations, 10-1000 U/mouse
Procedure: as §1

[4] = tested on: peripheral blood mononuclear lymphocytes of HLA-A2+ healthy person; experiment: FIG. 2: induction of lymphocyte proliferation, 3H-TdR; assay type: cell-based, human
Excerpt: FIG. 2 indicated the effect of inducing the proliferation of lymphocytes.

[5] = Overall functional screening of tri-epitope molecules
Excerpt: The designed immunogens are synthesized by chemical synthesis methods. Firstly, the most probable structures according to the computer alignment and in theory are synthesized, and then functionally screened in vitro. The screening in vitro comprises: inducing the Th1 activation of peripheral blood mononuclear cells, inducing the HBV-specific CTL, inhibiting HBsAg and HBeAg on HepG2.2.1.5 cells with polypeptide antigen-specific CTL, etc. The designed structures are optimized, improved and synthesized in the next cycle bused on the results of functional tests in vitro. The structures selected out in the in vitro tests are further screened in in vivo tests, the screening comprising: inducing the Th1 activation in Balb/C mice, inhibiting virus replication in HBV transgenic mice, conducting acute toxicity tests in mice, etc. […] Among tri-epitope molecules of different epitope combinations, εPA44 achieves the best effect (see Table 4). The in vivo and in vitro tests indicate that the convalent modification by palmitic acid gives better effects among various chemical modifications.

[6] = Stability in different solution systems (RP-HPLC); assay type: physicochemical
Excerpt: as §2

Balb/c mice = experiment: Neutralizing antibodies, double-antibody-sandwich and competitive inhibition test; assay type: in vivo
Procedure: Balb/c mice of 2-3 Months old (both male and female) were divided into 8 groups […], and were immunized with εPA44 at both postpede palmas once a week for three times at different doses: 0.001 nmol, 0.01 nmol, 0.1 nmol, 0.5 nmol, 1 nmol, 10 nmol, 20 nmol respectively, 3 weeks after the immunization, the mice were bled by removing their eyeballs and serums were collected. Antibodies were tested by the double-antibody-sandwich method. The specificity was tested by antibody competitive inhibition test using of the 10 world wide available monoclonal antibodies.

enzyme-labeled antibody = experiment: Potency/specific activity of stock solution or semifinished product, enzyme-linked plate; assay type: binding
Excerpt: Chromatography column AP5 20/275 POROS 50 R1 was used in the batch production. After peptide-resin was cleaved and preliminarily purified, the collected εPA44 sample was divided into 7 parts for high purification, and the effects and reproducibility for batch purification of εPA44 stock solution were furthered studied. […] The collected elution peak fractions of εPA44 were pooled and mixed homogenously, aliquots were removed for analysis. If the sample met the set standards, it was used as the stock solution and was stored at −20° C. until use. The output, yield and specific activity of the product were calculated based on the measured data.
The semifinished product to be tested was diluted to a concentration within the measurable range of the potency determination. An enzyme-linked plate( ? ) was coated, blocked, bound by enzyme-labeled antibody, and developed. The absorbance at 450 nm (A450 nm) was detected by an enzyme-labeling device, and compared to the reference of the product. The potency of εPA44 in the extract of the sample was determined, and the specific activity of the semifinished product ( ? ) was calculated.
The reference of the product was 10-fold diluted with 50% ethanol, and then was two-fold serially diluted. 100 μl dilutions were separately added to the wells on the 96-well enzyme-linket immunosorbent assay plate, each well was repeated in triplicate. Coating was carried out in refrigerator at 4° C. for 20-24 hours. The stock solution of εPA44 was diluted and coated similarly to the reference. 100 μl of 50% ethanol was added to negative control wells. After the coating was completed, 200 μl 1% calf serum was added to each well, and blocked in refrigerator at 4° C. for 2 hours. The enzyme-linket immunosorbent assay plate was dried in air, 80 μl enzyme-labeled antibody was added to each well and incubated at 37° C. for 40 minutes. The plate was washed with wash solution for 4 times and dried in air, then 50 μl of substrate solution A and 50 μl of substrate solution B were added to each well and developed at 37° C. for 15 minutes under protection from light. Then 50 μl of stop solution was added to each well. A450 nm values were detected on 550 type enzyme-linket immunosorbent assay detector. The median dilution times of the reference and the samples were calculated by program or linear regression method based on the median effect value of the reference of εPA44 (median maximum absorbance), and the potency of the test sample and the specific activity of the product were calculated according to the following formulas.

HBV-DNA transgenic mice [7] = experiment: HBV transgenic mice: IFN-γ secreting cells, ELI-SPOT; assay type: in vivo; details: 30th day after end of immunization
Procedure: as §1
The expression frequency of IFN-γ secreting cells in peripheral blood lymphocytes was measured by the ELI-SPOT method.

[8] = pI stated in the formulation description; assay type: physicochemical; details: stated without method in formulation example 39
[9] = 50% Ethanol-10 mmol/L phosphoric acid

For “K(Palmitoyl)SSQYIKANSKFIGITEAAAFLPSDFFPSVGGGDPRVRGLYFPA-OH [SEQ ID NO:1, CH3(CH2)14COKSSQYIKANSKFIGITEAAAFLPSDFFPSVGGGDPRVRGLYFPA]”, which IL-4 secretion (HBV-DNA transgenic mice [1]) is on record?
Its IL-4 secretion is “no obvious dose-effect dependence relation”.

And the “secretion of IFN-γ” value (HBV-DNA transgenic mice [1])?
Its value is “stronger”.

And the solubility ([2]; 0.1 mol/L PB (pH 6.8))?
The solubility was 10 µg/mL.

What about the solubility ([2]; 2% Tween80-0.1 mol/L PB(pH 6.8)) of the same substance?
The solubility was 80 µg/mL.

And the solubility ([2]; 50% Acetonitrile-0.1% TFA)?
Its solubility is 1670 µg/mL.

What about the solubility ([2]; 50% DMSO) of the same substance?
Its solubility is 2530 µg/mL.

And the solubility ([2]; 50% Ethanol-10 mmol/L HCl)?
The solubility was 2480 µg/mL.

What about the solubility [2, 9] of the same substance?
Its solubility is 2430 µg/mL.

What about the solubility ([2]; 50% Methanol-0.1% TFA) of the same substance?
The solubility was 1540 µg/mL.

What about the solubility ([2]; DMSO) of the same substance?
The solubility was 11700 µg/mL.

And the “HBsAg in the serum” value [3]?
Its value is “decreased in a manner of dose-dependence and time-dependence”.

What about the minimal effective dose ([4]; lymphocyte proliferation) of the same substance?
The minimal effective dose was 0.1 ng.

And the “range with dose-effect dependence” value ([4]; lymphocyte proliferation)?
The value was 0.1 to 10 ng.

And the “induction of the proliferation of lymphocytes” value ([4]; with IL-2, γ-count after 3H-TdR)?
The value was “significantly induce the proliferation of lymphocytes”.

And the “effect among tri-epitope molecules of different epitope combinations” value [5]?
The value was “best effect”.

And the Stability ([6]; 50% Acetonitrile-0.1% TFA)?
Its Stability is “Unstable”.

And the Stability ([6]; 50% Ethanol-10 mmol/L HCl)?
Its Stability is “Unstable”.

And the Stability [6, 9]?
The Stability was “Unstable”.

And the Stability ([6]; DMSO)?
The Stability was “Stable*”.

What about the “specificity of induced antibodies” value (Balb/c mice; antibody competitive inhibition test with monoclonal antibodies) of the same substance?
Its value is “HBV neutralizing antibodies”.

What about the “dose inducing the generation of antibody” value (Balb/c mice; serum 3 weeks after immunization) of the same substance?
The value was 0.01 nmol.

What about the Specific activity (enzyme-labeled antibody; semifinished product) of the same substance?
Its Specific activity is 13985.31 U/mg.

And the “potency of each vial” value (enzyme-labeled antibody; semifinished product)?
The value was 4085.53 U.

What about the Specific activity (enzyme-labeled antibody; stock solution after reversed phase chromatography, batches 1-3 and x ± Sx, listed as εPA44) of the same substance?
The Specific activity was 10265.08 U/mg and 11689.76 ± 1503.57 U/mg and 13261.42 U/mg and 11542.77 U/mg.

What about the “expression frequency of IFN-γ secreting cells in peripheral blood lymphocytes” value (HBV-DNA transgenic mice [7]; 10-1000 U/mouse) of the same substance?
Its value is “increased with the increase of the immunization dose”.

What about the “highest expression frequency of IFN-γ secreting cells” value (HBV-DNA transgenic mice [7]; IFN-α2b at 15000 U/mouse) of the same substance?
Its value is 3660 IFN-γ secreting cells/10^6 PBMC.

And the pI [8]?
The pI was 8.1.
